In PubChem BioAssay (NCI) one finds GI50 and TGI data, which are given here for 25 compounds.

Values joined by “and” are separate entries in the source; they are usually repeats but may differ in a detail not shown here. Equal entries are not always repeated.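 Values below derive from 48-hour exposures of cells grown in 96-well plates, with endpoints linearly interpolated between the two concentrations bracketing the appropriate inhibition level. The concentration for 50% growth inhibition is given as GI50. TGI: total growth inhibition.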

Assay in all cases: NCI tumour cell line growth inhibition, 48 h
Assay [1] concerns U251 CNS.
Assay [2] relates to OVCAR-4 ovarian.
Assay [3] concerns M14 melanoma.
For assay [4], the system named is SNB-19 CNS.
The test system of assay [5] is NCI-H226 lung.
The test system of assay [6] is NCI-H23 lung.
In assay [7] the test system is RPMI-8226 leukemia.
In assay [8] the test system is SK-MEL-28 melanoma.
The test system of assay [9] is SN12C renal.
The subject of assay [10] is HT29 colon.

For `CC1(C)CCc2c(c(N=Nc3ccccc3F)c3ccccc3c2O)O1`, the GI50 in [1] was 19.4 µM; in assay [2] it was 66.2 µM; in [3], above 100 µM; in assay [4] it was 36.8 µM; in [5], 38.7 µM; in [6] it was 16.8 µM. In addition, the GI50 in [7] was above 100 µM; in assay [8], above 100 µM; in assay [9], 22.7 µM. Further, the TGI is 37 µM in assay [1]; above 100 µM in assay [2]; above 100 µM in assay [3]; above 100 µM in [4]; above 100 µM in [5]; 58.6 µM in assay [6]. Further, the TGI in assay [7] was above 100 µM; in [8], above 100 µM; in assay [9] it was 53.1 µM.
On to `OCCN(CCO)c1nc(N2CCCCC2)c2nc(N(CCO)CCO)nc(N3CCCCC3)c2n1`, for which the TGI in [2] is above 100 µM; in [3] it was above 100 µM; in [5], above 100 µM; in assay [6], above 100 µM; in [8] it was above 100 µM; in [10], 40 µM. For the same compound, in assay [9], the TGI was above 100 µM.
For the compound `COc1ccc2nc3c(cc2c1)C(=O)CC(c1ccccc1)C3` (configuration not stated), the GI50 in assay [1] was 5.81 µM; in [2], above 100 µM; in [4], 2.94 µM; in [5], 2.53 µM; in [6], 5.4 µM; in assay [7], 3.65 µM. For the same compound, the GI50 in assay [8] was 4.09 µM; in assay [10] it was 0.439 µM; in assay [9], 0.732 µM. Besides, the TGI in [1], in assay [2], in [4], in [5], in assay [6] and in assay [7] was above 100 µM each time. The TGI in assay [8], in [10] and in [9] was above 100 µM each time.
On to `COc1ccc(-c2oc3c(OC)c(OC)c(OC)c(O)c3c(=O)c2OC)cc1O`, for which the GI50 in assay [1], in assay [3], in [6] and in assay [9] was below 0.01 µM in each case. Moreover, the TGI in assay [1] was 0.898 µM and 0.23 µM; in assay [2] it was above 100 µM; in assay [8] it was above 100 µM; in assay [10] it was 36.8 µM; in assay [9] it was above 100 µM.
As for `Cc1ccc(/C=N/NS(=O)(=O)c2ccccc2)cc1C`, the TGI in [1], in assay [2], in assay [3], in assay [5], in [6] and in assay [7] was above 100 µM in each case. In addition, the TGI in [8], in [10] and in assay [9] was above 100 µM in each case.
Turning to `C/C(=C\C(C[C@](C)(O)C(O)CCC#C[Si](C)(C)C)S(=O)(=O)c1ccccc1)CC/C=C/CO[Si](C)(C)C(C)(C)C` (some centres not stated), the TGI was determined as 26.5 µM in assay [1]; 27.9 µM in assay [2]; 34 µM in assay [3]; 41.6 µM in [4]; 38.8 µM in [5]; 41.9 µM in [6]. Also, the TGI in [7] worked out at 31.6 µM; in [10], 12.7 µM; in [9], 19 µM.
Regarding `C=CCOc1ccc(N)c([N+](=O)[O-])c1`, the TGI in [1], in [3], in assay [4], in assay [5], in assay [6] and in [7] was above 100 µM each time. Moreover, the TGI in assay [8], in [10] and in assay [9] was above 100 µM in each case.
Consider `COc1ccc(-c2cc(-c3ccc(OC)cc3)nc(NCCCNc3ccnc4cc(Cl)ccc34)n2)cc1`, for which the GI50 was 1.6 µM in assay [1]; 1.65 µM in assay [2]; 1.74 µM in assay [3]; 1.96 µM in assay [4]; 11.3 µM in assay [5]; 1.8 µM in [6]. Further, the GI50 in assay [8] was 1.73 µM; in [10] it was 1.56 µM; in [9] it was 1.71 µM. Also, the TGI in [1] is 3 µM; in assay [2], 3.35 µM; in assay [3], 3.28 µM; in [4], 3.99 µM; in assay [5], 28.2 µM; in [6], 3.72 µM. The TGI turned out to be 3.21 µM in assay [8], 3.06 µM in [10] and 3.34 µM in assay [9].
With `[Co].[O-]c1cccnc1C=Nc1ccccc1.[OH3+]`, the GI50 in [1], in assay [2], in assay [3], in assay [4], in [6] and in [7] was above 100 µM each time. Also, the GI50 was 82.6 µM in [8], above 100 µM in [10] and above 100 µM in [9]. Moreover, the TGI in assay [1], in assay [2], in assay [3], in assay [4], in assay [6] and in assay [7] was above 100 µM each time. Moreover, the TGI in assay [8], in assay [10] and in assay [9] was above 100 µM each time.
Regarding `CC(=O)NCc1c(C(N)=O)ncn1Cc1ccccc1`, the TGI in assay [1], in assay [2], in assay [3], in assay [4], in assay [6] and in [7] was above 100 µM throughout. Also, the TGI in assay [8], in assay [10] and in [9] was above 100 µM in each case.
With `CS(=O)(=O)NNS(=O)(=O)c1ccc(F)cc1`, the TGI in [1], in [2], in [3], in assay [4], in [5] and in assay [6] was above 100 µM each time. Moreover, the TGI in assay [7], in assay [10] and in assay [9] was above 100 µM in each case.
Take `O=[N+]([O-])c1cc(I)cc(/C=N/NS(=O)(=O)c2ccc(Cl)cc2)c1O`: the TGI in assay [1] is 40.3 µM; in [2], 85.6 µM; in assay [3] it was 58.3 µM; in assay [4] it was above 100 µM; in assay [6] it was 34.2 µM; in assay [7] it was 59.7 µM. Besides, the TGI was found to be 73.8 µM in assay [8], 48.6 µM in [10] and 49.4 µM in assay [9].
On to `COc1cc(/C=C2\NC(=O)C3Cc4c(OC)c(C)c(OC)c(OC)c4C2N3C)c(OC)c(C)c1OC` (configuration not stated), for which the TGI in [1], in assay [2], in [3], in [4], in assay [5] and in assay [6] was above 100 µM in each case. Further, the TGI in assay [8], in [10] and in assay [9] was above 100 µM each time.
As to `O=c1c(C(c2ccc([N+](=O)[O-])cc2)c2c(O)c3ccccc3n(-c3ccccc3)c2=O)c(O)c2ccccc2n1-c1ccccc1`, the TGI was 75.2 µM in assay [1]; above 100 µM in [2]; above 100 µM in assay [4]; 74.8 µM in assay [5]; 34.3 µM in assay [6]; 57.1 µM in assay [7]. Also, the figures for the TGI in assay [8] and in assay [9] were 66.5 µM and above 100 µM, respectively.
Turning to `O=C(CC1(O)C(=O)Nc2ccccc21)c1ccc(Cl)cc1Cl` (configuration not stated), the TGI in [2], in assay [3], in assay [4], in [5], in [6] and in assay [7] was above 100 µM each time. Moreover, the TGI in assay [8], in [10] and in [9] was above 100 µM each time.
As to `CNS(=O)(=O)NNS(=O)(=O)c1ccc(F)cc1`, the TGI in assay [1], in [2], in assay [3], in [4], in assay [5] and in assay [6] was above 100 µM each time. The TGI in assay [7] and in assay [10] was above 100 µM in each case.
As to `CO/C=C(\Br)c1ccc2c(c1)OCO2`, the TGI in assay [1], in assay [2], in assay [3], in assay [4], in assay [5] and in [6] was above 100 µM throughout. Further, the TGI in assay [8] and in [9] was above 100 µM in each case.
Regarding `COc1ccc(C[C@]23CCC(=O)N2CCc2cc(OC)c(O)cc23)cc1O`, the TGI in assay [2], in assay [3], in assay [4], in assay [5], in assay [6] and in [7] was above 100 µM in each case. Further, the TGI in assay [8], in [10] and in [9] was above 100 µM throughout.
On to `O=[N+]([O-])c1ccc(N=Nc2c(Cl)cc(O)cc2Cl)cc1`, for which the GI50 in assay [1] was 0.977 µM; in assay [2], 1.39 µM; in [3], 1.95 µM; in assay [4] it was 1.94 µM; in assay [5] it was 2.83 µM; in assay [6], 1.72 µM. The GI50 in [8] was 1.92 µM; in [10] it was 3.7 µM; in assay [9] it was 0.875 µM. In addition, the TGI in assay [1] was 11.2 µM; in assay [2] it was 12 µM; in assay [3], 4.86 µM; in assay [4], 15.7 µM; in assay [5], 11.3 µM; in assay [6], 6.71 µM. Besides, the TGI in assay [8] was 8.55 µM; in [10] it was 12.6 µM; in [9], 10.3 µM.
Regarding `CCOC(=O)CNC(=O)OCc1ccccc1`, the TGI in [1], in [3], in [4], in assay [6], in [8] and in [10] was above 100 µM in each case. Besides, the TGI in assay [9] is above 100 µM.
`COc1ccc2c(c1)C(=O)c1c-2c(N2CCN(C(=O)CCNCCNCCN)CC2)nc2ccccc12`: the GI50 in assay [2] is 20.4 µM; in assay [3], 2.03 µM; in assay [4], 15 µM; in [5] it was 22.6 µM; in assay [7], 2.93 µM; in [8], 2.04 µM. Moreover, the results for the GI50 in assay [10] and in assay [9] were 2.43 µM and 12.2 µM, respectively. For the same compound, the TGI in assay [2] was 38.3 µM; in assay [3], 3.83 µM; in [4], 39.8 µM; in assay [5] it was 78.4 µM; in [7] it was 9.71 µM; in [8] it was 3.66 µM. Besides, the TGI was found to be 4.88 µM in [10] and 38.6 µM in assay [9].
In the case of `O=C(Nc1ccccc1Cl)c1ccc(NC2=C(Cl)C(=O)N(C3CCCCC3)C2=O)cc1`, the GI50 in [1] was 3 µM; in assay [2] it was 25.1 µM; in assay [3], 11.7 µM; in assay [4] it was 16.9 µM; in assay [5], 9.4 µM; in [6], 4.92 µM. For the same compound, the GI50 in assay [7] was 7.35 µM; in assay [8], 17.6 µM; in assay [10] it was 10.8 µM. Moreover, the TGI in assay [1] came out at 19.4 µM; in assay [2] it was 74.9 µM; in assay [3] it was 42.1 µM; in [4], 38.5 µM; in assay [5], 31.8 µM; in [6], 21.2 µM. The TGI in assay [7] came out at 34.2 µM; in assay [8], 49.6 µM; in assay [10] it was 30 µM.
Take `Cc1cc2c(=O)c(C)n[nH]c2c(C#N)c1C`: the TGI in [1], in [4], in assay [5], in assay [6], in assay [7] and in assay [8] was above 100 µM in each case. Moreover, the TGI in [10] and in assay [9] was above 100 µM throughout.
For the compound `O=C(O)CN1C(=O)CN=C(c2ccccn2)c2cc(Cl)ccc21`, the TGI in assay [1], in assay [2], in assay [3], in assay [4], in assay [5] and in assay [7] was above 100 µM each time. The TGI in [8], in assay [10] and in assay [9] was above 100 µM throughout.
Take `COc1ccc([Se][Se]c2ccc(OC)cc2OC)c(OC)c1`: the TGI is 4.6 µM in [2]; 9.3 µM in assay [3]; 21 µM in [4]; 7.71 µM in assay [5]; 15.3 µM in assay [6]; 6.96 µM in [7]. The TGI in assay [8] is 4.56 µM; in assay [10], above 100 µM.
